{"source": "patent US20210395247A1", "about": "“BTK INHIBITORS, PHARMACEUTICALLY ACCEPTABLE SALTS, POLYMORPHS AND APPLICATION THEREOF” (SHANGHAI HAIYAN PHARMACEUTICAL TECHNOLOGY CO., LTD., priority 2019, published 2021)", "key": {"BTK WT": {"target": "T1, BTK WT (Homo sapiens, UniProt Q06187)", "T1 construct": "purchased Invitrogen PV3363", "T1 sequence (Q06187 whole entry)": "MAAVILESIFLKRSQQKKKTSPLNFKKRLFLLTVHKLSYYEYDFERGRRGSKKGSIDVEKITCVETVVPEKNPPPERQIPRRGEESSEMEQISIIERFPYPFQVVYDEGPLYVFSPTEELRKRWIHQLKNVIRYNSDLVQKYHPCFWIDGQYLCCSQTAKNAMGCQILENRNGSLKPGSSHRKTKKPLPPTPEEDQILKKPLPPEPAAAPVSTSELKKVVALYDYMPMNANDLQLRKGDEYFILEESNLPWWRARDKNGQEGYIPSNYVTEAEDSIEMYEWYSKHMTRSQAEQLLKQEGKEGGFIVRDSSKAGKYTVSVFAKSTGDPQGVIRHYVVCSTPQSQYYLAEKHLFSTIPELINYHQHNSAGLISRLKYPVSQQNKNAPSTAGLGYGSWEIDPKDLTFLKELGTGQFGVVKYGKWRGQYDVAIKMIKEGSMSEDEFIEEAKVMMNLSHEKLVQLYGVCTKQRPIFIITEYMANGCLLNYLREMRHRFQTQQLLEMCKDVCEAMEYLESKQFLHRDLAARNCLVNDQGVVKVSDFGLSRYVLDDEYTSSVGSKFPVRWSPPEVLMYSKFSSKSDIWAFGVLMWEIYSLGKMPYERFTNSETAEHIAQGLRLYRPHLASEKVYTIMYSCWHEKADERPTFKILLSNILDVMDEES", "assay": "Lantha screening kinase reaction experiment (BTK WT inhibition)", "assay_type": "biochemical", "method": "The compound was predissolved in 100% DMSO. 10 mM drug stock solution was obtained by dissolution at room temperature and then serially diluted with 8 vol % DMSO solution to a final concentration of 10-0.005 μM. 2.5 μl of a solution of substance to be tested and 2.5 μl of kinase (Invitrogen PV3363) diluted with the reaction buffer were added into each well of 384-well plate (Corning 3676), and then the mixture of Fluososcei-PolyGT (Invitrogen PV3610) substrate and ATP (Invitrogen PV3227) diluted with 5 μl of the reaction buffer were added to initiate the reaction. Among the wells, the kinase in the blank well was replaced with a reaction buffer and the kinase well (Enzyme) was not added with any drug. After shaking at 25° C. for 60 minutes in the dark, 10 μl of Detection Solution (mixture of Invitrogen PV3528 and EDTA, which was diluted with TR-FRET dilution buffer, the working concentration of EDTA was 5 mM, the working concentration of Lanthascreening Tb PY20 antibody was 0.2 nM) was added and shaken at room temperature for 30 minutes. The plates were read on a VictorX5 fluorescent plate reader (PerkinElmer) and the light absorption at an excitation wavelength of 340 nm and emission wavelengths of 500 nm and 520 nm was measured. […]\n2. […] The half-inhibitory concentration IC50 was calculated by fitting with XLFIT 5.0 software (IDBS, UK)."}, "Solubility experiment": {"assay": "Solubility experiment", "assay_type": "physicochemical", "method": "About 5 mg of the compound of formula X (amorphous), crystal form I and crystal form A were weighed into each centrifuge tube, and 0.5 ml or 1 ml of corresponding medium was added, and ultrasonic vibration is conducted to make it dissolved as much as possible to form a supersaturated solution, centrifuged and the supernatant (if the solubility is high, dilute it) was taken into the liquid chromatography to calculate the solubility, 5.69 mg of the compound of formula X (amorphous) can be completely dissolved in 0.5 ml of 0.1M HCl medium, 4.24 mg of crystal form I can be completely dissolved in 1 ml of 0.1M HCl medium, the experimental results are shown in table 12: […]"}, "wild-type EGFR kinase": {"target": "T2, wild-type EGFR kinase (Homo sapiens, UniProt P00533)", "T2 construct": "purchased Invitrogen PV3872", "T2 sequence (P00533 668-1210 limits assumed)": "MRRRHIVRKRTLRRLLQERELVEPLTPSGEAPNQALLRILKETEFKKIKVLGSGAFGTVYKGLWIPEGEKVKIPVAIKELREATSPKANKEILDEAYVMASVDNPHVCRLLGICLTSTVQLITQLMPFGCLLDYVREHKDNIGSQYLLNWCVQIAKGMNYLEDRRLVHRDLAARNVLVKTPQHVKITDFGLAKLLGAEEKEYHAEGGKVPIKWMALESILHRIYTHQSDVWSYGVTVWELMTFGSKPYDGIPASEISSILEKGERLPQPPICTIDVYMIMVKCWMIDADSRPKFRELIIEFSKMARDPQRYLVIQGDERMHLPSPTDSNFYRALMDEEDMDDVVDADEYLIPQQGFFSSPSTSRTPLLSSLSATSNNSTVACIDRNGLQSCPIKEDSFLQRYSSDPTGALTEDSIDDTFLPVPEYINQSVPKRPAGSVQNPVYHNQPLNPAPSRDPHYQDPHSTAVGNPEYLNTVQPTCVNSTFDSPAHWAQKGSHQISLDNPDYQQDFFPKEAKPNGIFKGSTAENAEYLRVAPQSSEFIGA", "assay": "Wild type EGFR kinase inhibition test (z-lyte)", "assay_type": "biochemical", "method": "All the following reagents used in z-lyte test are commercially available from Invitrogen.\nThe inhibitory effects of compounds to be tested on wild-type EGFR kinase (Invitrogen, PV3872) were measured by z-lyte methods.\nThe working concentration of each component in 10 μl wild-type EGFR kinase reaction system was: 10 μM ATP, 0.8 ng/μl wild-type EGFR kinase (Invitrogen, PV3872), 2 μM Tyr04 substrate (Invitrogen, PV3193). After the compounds to be tested were added, the final concentration of DMSO was 2%.\n10 mM drug stock solutions dissolved at room temperature were gradiently diluted with 4% DMSO in water to a final concentrations of 10-0.005 μM. To each well were added 2.5 μl of a solution of the compounds to be tested and 5 μl of a mixture of wild-type EGFR kinase and Tyr04 substrate diluted with a reaction buffer, and then 2.5 μl of ATP was added to initiate the reaction. […] The plates were read in a VictorX5 fluorescent microplate reader (PerkinElmer) and the light absorbance at an excitation wavelength of 405 nm and emission wavelengths of 450 nm and 520 nm was measured (For example, C3520 nm represents the reading of C3 well at 520 nm). […]\nThe half-inhibitory concentration IC50 was calculated by fitting with XLFIT 5.0 software (IDBS, UK)."}, "βBTK Y223": {"target": "T3, βBTK Y223 (Homo sapiens, UniProt Q06187)", "T3 construct": "endogenous in cells; host or cells: Ramos cells", "T3 sequence (Q06187 whole entry)": "as the sequence (Q06187 whole entry) above", "assay": "Intracellular βBTK Y223 phosphorylation HTRF detection in Ramos cells", "assay_type": "cell-based", "conditions": "sodium pervanadate", "method": "The compound was predissolved in 100% DMSO. 10 mM drug stock solution was obtained by dissolution at room temperature and then serially diluted with 5 vol % DMSO solution to a final concentration of 3-0.0014 μM. Ramos cells were seeded into 96-well plates at a density of 4×10^5/well with 45 μl of 1640 medium containing 10% (V/V) FBS per well, and 5 μl of diluted solution of substance to be tested was added to each well, which was incubated for 1 hour at 37° C., 5% (V/V) CO2. 10 μl of sodium pervanadate dilution (diluted with 1640 without serum) was added, and to the negative control wells was added 10 μl of serum-free medium, which was incubated at 25° C. for 30 minutes on a shaker. 20 μl of lysate (4× lysate: blocked mother liquor is 25:1) was added to each well and incubated for 30 minutes at 25° C. on a shaker. It was shaken on an oscillator at 800 rpm for 1 minute. […] The plates were read on a VictorX5 fluorescent plate reader (PerkinElmer) and the light absorption at an excitation wavelength of 317 nm and emission wavelengths of 500 nm and 520 nm was measured (referring to the specification of 63ADK017PEH, Cisbio). The half-inhibitory concentration IC50 was calculated by fitting with XLFIT 5.0 software (IDBS, UK)."}, "[1]": {"assay": "Stability experiment (40° C./75% RH accelerated stability box and 60° C. oven)", "assay_type": "physicochemical", "method": "The compound of formula X (amorphous) and crystal form A are placed in a 40° C./75% RH accelerated stability box and a 60° C. oven respectively, and take samples at fixed time points."}, "[2]": {"assay": "Dynamic Vapor Sorption (DVS)", "assay_type": "physicochemical", "method": "The Dynamic Vapor Sorption (DVS) curve: acquired on the DVS Intrinsic of Surface Measurement Systems. The relative humidity at 25° C. is corrected with the deliquescence points of LiCl, Mg (NO3)2 and KCl."}, "[3]": {"assay": "Stability experiment of the crystal forms of the free base (mixed forms shaken under suspension in solvents, XRD)", "assay_type": "physicochemical", "conditions": "50° C. 1 day, room temperature 1 day and 7 days", "method": "80 mg of the compound of formula X in amorphous form, crystal form I, crystal form II and crystal form III were weighed respectively, and mixed them in a sample bottle; 20 mg of the mixture was weighed into each centrifuge tube, a total of 15 samples (5 experimental solvents, 3 experimental conditions); Experimental solvents: acetone, acetonitrile, ethyl acetate, isopropanol and ethanol; Experimental conditions: 1 day and 7 days at room temperature, 1 day at 50° C. The experimental conditions and results are as follows: […]"}, "[4]": {"assay": "Stability experiment of crystal form I (60° C. oven)", "assay_type": "physicochemical", "method": "The sample is weighed and placed in an oven at 60° C., and taken for test at a fixed time point."}, "[5]": {"assay": "Thermogravimetric analysis (TGA)", "assay_type": "physicochemical", "conditions": "below 250° C.", "source_text": "TGA and DSC pattern: TGA and DSC pattern were collected on TA Q500/5000 thermogravimetric analyzer and TA Q200/2000 differential scanning calorimeter respectively."}}, "note": "pIC50: −log10 of the molar value. Read-outs that look alike come from different tables or passages of the source."}
{"molecule": "C=CC(=O)N1CCC[C@H](Nc2nc(Nc3ccc(N4CCOCC4)cc3F)c3c(c2F)CNC3=O)C1", "note": "[(S)-6-((1-acryloylpiperidin-3-yl)amino)-7-fluoro-4-((2-fluoro-4-morpholinophenyl)amino)-1,2-dihydrogen-3H-pyrrolo[3,4-c]pyridin-3-one, reference compound]", "values": [{"measurement": "pIC50", "setting": "BTK WT", "result": 7.32}]}
{"molecule": "C=CC(=O)N1CCC[C@@H](Nc2nc(Nc3ccc(N4CCOCC4)cc3F)c3c(c2F)CNC3=O)C1", "note": "[Compound of formula X, (R)-6-((1-acryloylpiperidin-3-yl)amino)-7-fluoro-4-((2-fluoro-4-morpholinophenyl)amino)-1,2-dihydrogen-3H-pyrrolo[3,4-c]pyridin-3-one]", "values": [{"measurement": "Solubility", "setting": "Solubility experiment; 0.1M HCl medium, listed as Amorphous", "result": "≥11380", "unit": "µg/mL"}, {"measurement": "Solubility", "setting": "Solubility experiment; H2O, listed as Amorphous", "result": 11, "unit": "µg/mL"}, {"measurement": "Solubility", "setting": "Solubility experiment; pH 4.5 medium, listed as Amorphous", "result": 9, "unit": "µg/mL"}, {"measurement": "Solubility", "setting": "Solubility experiment; pH 6.8 medium, listed as Amorphous", "result": 7, "unit": "µg/mL"}, {"measurement": "pIC50", "setting": "BTK WT", "result": 8.62}, {"measurement": "pIC50", "setting": "wild-type EGFR kinase; 10 μM ATP, read-out: EGFR WT IC50", "result": 6.03}, {"measurement": "selectivity BTK WT kinase over wild-type EGFR kinase (in words)", "setting": "wild-type EGFR kinase; comparison of tables 14 and 16", "result": "selective inhibitory activities against BTK WT kinase"}, {"measurement": "pIC50", "setting": "βBTK Y223", "result": 8.52}, {"measurement": "Content %", "setting": "[1]; 0 day", "result": 100.00, "unit": "%"}, {"measurement": "Total Impurity %", "setting": "[1]; 0 day", "result": 0, "unit": "%"}, {"measurement": "chemical stability (conclusion in words)", "setting": "[1]; 40° C./75% RH and 60° C., 8 days and 14 days", "result": "stable"}, {"measurement": "Content %", "setting": "[1]; 40° C./75% RH, 8 days", "result": 100.62, "unit": "%"}, {"measurement": "Total Impurity %", "setting": "[1]; 40° C./75% RH, 8 days", "result": 0, "unit": "%"}, {"measurement": "Content %", "setting": "[1]; 40° C./75% RH, 14 days", "result": 100.70, "unit": "%"}, {"measurement": "Total Impurity %", "setting": "[1]; 40° C./75% RH, 14 days", "result": 0, "unit": "%"}, {"measurement": "Content %", "setting": "[1]; 60° C., 8 days", "result": 100.82, "unit": "%"}, {"measurement": "Total Impurity %", "setting": "[1]; 60° C., 8 days", "result": 0, "unit": "%"}, {"measurement": "Content %", "setting": "[1]; 60° C., 14 days", "result": 100.81, "unit": "%"}, {"measurement": "Total Impurity %", "setting": "[1]; 60° C., 14 days", "result": 0, "unit": "%"}]}
{"molecule": "C=CC(=O)N1CCC[C@@H](Nc2nc(Nc3ccc(N4CCOCC4)cc3F)c3c(c2F)CNC3=O)C1", "note": "[crystal form I, (R)-6-((1-acryloylpiperidin-3-yl)amino)-7-fluoro-4-((2-fluoro-4-morpholinophenyl)amino)-1,2-dihydrogen-3H-pyrrolo[3,4-c]pyridin-3-one]", "values": [{"measurement": "Solubility", "setting": "Solubility experiment; 0.1M HCl medium", "result": "≥4240", "unit": "µg/mL"}, {"measurement": "Solubility", "setting": "Solubility experiment; pH 4.5 medium, pH 4.5, aqueous buffer, thermodynamic from solid, pH 4.5 medium, read-out: Solubility", "result": 8, "unit": "µg/mL"}, {"measurement": "Solubility", "setting": "Solubility experiment; pH 6.8 medium, pH 6.8, aqueous buffer, thermodynamic from solid, pH 6.8 medium, read-out: Solubility", "result": 6, "unit": "µg/mL"}, {"measurement": "Solubility", "setting": "Solubility experiment; water, thermodynamic from solid, H2O, read-out: Solubility", "result": 7, "unit": "µg/mL"}, {"measurement": "weight gain of moisture absorption", "setting": "[2]; 90% RH, 25° C.", "result": 0.22, "unit": "%"}, {"measurement": "hygroscopicity (in words)", "setting": "[2]; from DVS at 90% RH", "result": "slightly hygroscopic"}, {"measurement": "form obtained from the mixture of amorphous and crystal forms I, II, III (XRD)", "setting": "[3]; acetone", "result": "stable crystal form"}, {"measurement": "form obtained from the mixture of amorphous and crystal forms I, II, III (XRD)", "setting": "[3]; acetonitrile", "result": "stable crystal form"}, {"measurement": "form obtained from the mixture of amorphous and crystal forms I, II, III (XRD)", "setting": "[3]; ethyl acetate", "result": "stable crystal form"}, {"measurement": "form obtained from the mixture of amorphous and crystal forms I, II, III (XRD)", "setting": "[3]; isopropanol", "result": "stable crystal form"}, {"measurement": "Content %", "setting": "[4]; 0 day", "result": 100.11, "unit": "%"}, {"measurement": "Relative substance %", "setting": "[4]; 0 day", "result": "none"}, {"measurement": "Content %", "setting": "[4]; 60° C., 1 week", "result": 99.91, "unit": "%"}, {"measurement": "Relative substance %", "setting": "[4]; 60° C., 1 week", "result": "none"}, {"measurement": "chemical stability (conclusion in words)", "setting": "[4]; 60° C., 1 week and 2 weeks", "result": "stable"}, {"measurement": "crystal form stability by XRD", "setting": "[4]; 60° C., 1 week and 2 weeks", "result": "has not changed"}, {"measurement": "Content %", "setting": "[4]; 60° C., 2 weeks", "result": 99.76, "unit": "%"}, {"measurement": "Relative substance %", "setting": "[4]; 60° C., 2 weeks", "result": "none"}, {"measurement": "TGA weight loss", "setting": "[5]", "result": "basically no weight loss"}]}
{"molecule": "C=CC(=O)N1CCC[C@@H](Nc2nc(Nc3ccc(N4CCOCC4)cc3F)c3c(c2F)CNC3=O)C1", "note": "[crystal form III, (R)-6-((1-acryloylpiperidin-3-yl)amino)-7-fluoro-4-((2-fluoro-4-morpholinophenyl)amino)-1,2-dihydrogen-3H-pyrrolo[3,4-c]pyridin-3-one]", "values": [{"measurement": "form obtained from the mixture of amorphous and crystal forms I, II, III (XRD)", "setting": "[3]; ethanol", "result": "stable crystal form"}]}
